Experimental data published in US8153781B2, “Dendrimer conjugates of agonists and antagonists of the GPCR superfamily” (The United States of America as represented by the …, priority 2007, dated 2012).

Key:
hA3 AR [1] = target: T1, hA3 AR (Homo sapiens, UniProt P0DMS8); assay: Calcium protocol, CHO cells expressing human A3 receptor; type: cell-based
T1 construct: expressed in transfected cells; host or cells: CHO cells
T1 sequence (P0DMS8 1-318): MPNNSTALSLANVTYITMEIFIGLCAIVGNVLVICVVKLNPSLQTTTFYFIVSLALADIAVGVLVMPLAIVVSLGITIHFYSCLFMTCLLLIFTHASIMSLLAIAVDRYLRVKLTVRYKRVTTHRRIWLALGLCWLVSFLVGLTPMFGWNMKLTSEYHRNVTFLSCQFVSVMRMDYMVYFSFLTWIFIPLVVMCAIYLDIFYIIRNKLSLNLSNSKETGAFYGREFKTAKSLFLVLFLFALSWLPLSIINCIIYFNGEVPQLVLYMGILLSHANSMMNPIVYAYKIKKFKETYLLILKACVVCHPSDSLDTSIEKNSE
Experimental: Calcium Protocol. Chinese Hamster Ovary (CHO) cells stably expressing the human A3 receptor were grown in Dulbecco's Modified Eagle Medium/F12 (Sigma) supplemented with 10% fetal bovine serum, antibiotics, and glutamine. Each assay was completed by passaging the CHO A3 cells into 96 well plates and incubating overnight at 37° C. with 5% CO2. The FLIPR Calcium 4 Kit provided by Molecular Devices was used as described previously (Niebauer). Briefly, the media was removed from the cells, and 30 μl of the Calcium 4 fluorescent dye supplemented with 2.5 mM probenecid was added to each well. The cells were incubated at room temperature for 45 minutes. The compound plate was prepared by diluting the compounds to 10^−5-10^−9 M in Hanks Buffer. Samples were run in duplicate on the Molecular Devices FlexStation I at room temperature. […] Increases in intracellular calcium are reported as the relative fluorescence units after exposure minus the basal fluorescence value before exposure. Each experiment was repeated at least three times.

hA3 AR [2] = target: T1, hA3 AR; assay: Radioligand membrane binding assay, A3 AR; details: Table 3; expressed in CHO cells
Experimental: (§1) Radioligand Membrane Binding Experiments. Radioligand binding assays were performed for A1, A2A, and A3 ARs. Each tube in the binding assay contained 100 μL of membrane suspension (20 μg of protein), 50 μL of agonist radioligand, and 50 μL of increasing concentrations of the test ligands in Tris-HCl buffer (50 mM, pH 7.5) containing 10 mM MgCl2. Nonspecific binding was determined using […] 5′-N-ethylcarboxamidoadenosine diluted with the buffer. The mixtures were incubated at 25° C. for 60 min. Binding reactions were terminated by filtration through Whatman GF/B filters under a reduced pressure using a MT-24 cell harvester (Brandell, Gaithersburg, Md.). Filters were washed three times with 5 mL of 50 mM ice-cold Tris-HCl buffer (pH 7.5). […] After the filters were washed, the radioactivity was measured using a Beckman γ-counter. For the A1 and A2A assays, the radioactive agonists [^3H] N^6-chlorocyclopentyladenosine and [^3H] 2-(4-(2-carboxyethyl)phenylethylamino)-5′-N-ethylcaboxamido-adenosine were used, respectively. After the filters were washed, they were placed in scintillation vials containing 5 mL of Hydrofluor scintillation buffer and counted using a Perkin Elmer Liquid Scintillation Analyzer. The Ki value was determined using GraphPad Prism for all assays.

hA1 AR = target: T2, hA1 AR (Homo sapiens, UniProt P30542); assay: Radioligand membrane binding assay, A1 AR; details: Table 3; expressed in CHO cells
T2 construct: expressed in transfected cells; host or cells: CHO cells
T2 sequence (P30542 1-326): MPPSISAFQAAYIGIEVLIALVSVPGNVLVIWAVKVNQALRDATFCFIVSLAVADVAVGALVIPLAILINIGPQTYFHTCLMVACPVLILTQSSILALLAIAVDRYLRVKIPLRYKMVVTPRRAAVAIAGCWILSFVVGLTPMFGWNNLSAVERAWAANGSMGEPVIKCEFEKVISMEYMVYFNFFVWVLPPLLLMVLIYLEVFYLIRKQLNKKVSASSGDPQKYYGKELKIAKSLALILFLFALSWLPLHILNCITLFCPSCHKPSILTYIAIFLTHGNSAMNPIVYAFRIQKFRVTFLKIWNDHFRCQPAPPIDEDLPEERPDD
Experimental: Radioligand Membrane Binding Experiments. […] Each tube in the binding assay contained 100 μL of membrane suspension (20 μg of protein), 50 μL of agonist radioligand, and 50 μL of increasing concentrations of the test ligands in Tris-HCl buffer (50 mM, pH 7.5) containing 10 mM MgCl2. Nonspecific binding was determined using 10 mM 5′-N-ethylcarboxamidoadenosine diluted with the buffer. The mixtures were incubated at 25° C. for 60 min. Binding reactions were terminated by filtration through Whatman GF/B filters under a reduced pressure using a MT-24 cell harvester (Brandell, Gaithersburg, Md.). Filters were washed three times with 5 mL of 50 mM ice-cold Tris-HCl buffer (pH 7.5). […] After the filters were washed, the radioactivity was measured using a Beckman γ-counter. For the A1 and A2A assays, the radioactive agonists [^3H] N^6-chlorocyclopentyladenosine and [^3H] […] The Ki value was determined using GraphPad Prism for all assays.

hA2A AR [3] = target: T3, hA2A AR (Homo sapiens, UniProt P29274); assay: Functional assay at hA2A AR (Table 3); type: cell-based; parameters: expressed in transfected cells; details: Table 3 functional assay
hA2A AR [4] = target: T3, hA2A AR; assay: Radioligand membrane binding assay, A2A AR; parameters: expressed in transfected cells; details: for Ki: Table 3, expressed in CHO cells
Experimental: as §1

A1AR [5] = target: T4, A1AR (Homo sapiens, UniProt P30542); assay: [35S]GTPγS binding, A1AR; type: biochemical; details: CHO cells expressing A1AR
T4 construct: expressed in transfected cells; host or cells: CHO cells
T4 sequence (P30542 1-326): T2 sequence (P30542 1-326)
Experimental: [^35S]GTPγS binding was measured in 200 μl of buffer containing 50 mM Tris-HCl (pH 7.4), 1 mM EDTA, 1 mM MgCl2, 10 μM GDP, 1 mM dithiothreitol, 100 mM NaCl, 3 units/ml adenosine deaminase, 0.2 nM [^35S]GTPγS, 0.004% CHAPS, 0.5% bovine serum albumin and increasing concentrations of the ligands. Samples were started by addition of the membrane suspension (5-10 μg protein/tube) to the test tubes and incubated at 25° C. for 30 min. The assay was terminated by rapid filtration through Whatman GF/B filters, pre-soaked in 50 mM Tris-HCl (pH 7.4) containing 5 mM MgCl2 and 0.02% CHAPS. Non-specific binding of [^35S] GTPγS was measured in the presence of 10 μM unlabelled GTPγS. After the filters were washed, they were placed in scintillation vials containing 5 mL of Hydrofluor scintillation buffer and counted using a Perkin Elmer Liquid Scintillation Analyzer.

A2AAR = target: T5, A2AAR (Homo sapiens, UniProt P29274); assay: Binding at A2AAR with [3H]CGS21680, HEK cells
T5 construct: expressed in transfected cells; host or cells: CHO

A1AR [6] = target: T4, A1AR; assay: Binding at A1AR with [3H]CCPA, CHO cells
hA2A AR [7] = target: T3, hA2A AR
A3 adenosine receptor [8] = target: T6, A3 adenosine receptor (Homo sapiens, UniProt P0DMS8); assay: Binding assay at A3 adenosine receptor (Table 7)
T6 sequence (P0DMS8 1-318): T1 sequence (P0DMS8 1-318)
Experimental: CHO (Chinese hamster ovary) cells expressing the recombinant human ARs were cultured in Dulbecco's modified Eagle medium (DMEM) and F12 (1:1) supplemented with 10% fetal bovine serum, 100 units/mL penicillin, 100 μg/mL streptomycin, and 2 μmol/mL glutamine. After harvesting, cells were homogenized and suspended. Cells were then centrifuged at 500 g for 10 min, and the pellet was resuspended in 50 mM Tris-HCl buffer (pH 7.5) containing 10 mM MgCl2. The suspension was homogenized and was then recentrifuged at 20 000 g for 20 min at 4° C. The resultant pellets were resuspended in Tris buffer, incubated with adenosine deaminase for 30 min at 37° C., and the suspension was stored at −80° C. until the binding experiments. The protein concentration was measured using the Bradford assay.
(§2) This Example illustrates a preparation and some of the properties of conjugate 117 in accordance with an embodiment of the invention.

A1 adenosine receptor = target: T7, A1 adenosine receptor (Homo sapiens, UniProt P30542); assay: cAMP inhibition assay, A1 adenosine receptor; type: cell-based; details: Table 8
T7 sequence (P30542 1-326): T2 sequence (P30542 1-326)
Description: as §2

A3 adenosine receptor [9] = target: T6, A3 adenosine receptor; assay: cAMP inhibition assay, A3 adenosine receptor; type: cell-based; details: Table 8
Description: as §2

T3 sequence (P29274 whole entry): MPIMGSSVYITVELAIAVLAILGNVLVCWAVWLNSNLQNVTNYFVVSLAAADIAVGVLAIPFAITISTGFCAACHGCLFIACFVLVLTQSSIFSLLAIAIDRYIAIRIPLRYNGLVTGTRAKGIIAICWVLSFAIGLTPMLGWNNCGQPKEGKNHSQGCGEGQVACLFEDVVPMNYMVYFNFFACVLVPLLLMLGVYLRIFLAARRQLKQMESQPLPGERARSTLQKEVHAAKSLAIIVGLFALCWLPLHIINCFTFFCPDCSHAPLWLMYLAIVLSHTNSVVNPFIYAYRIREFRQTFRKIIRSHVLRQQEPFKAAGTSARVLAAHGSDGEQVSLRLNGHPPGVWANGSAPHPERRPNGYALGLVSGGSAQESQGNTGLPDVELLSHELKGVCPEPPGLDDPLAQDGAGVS
T5 sequence (P29274 whole entry): as above

In the case of `CCNC(=O)[C@H]1OC(n2cnc3c(N)nc(NCCc4ccc(CCC(=O)NCCNC(C)=O)cc4)nc32)[C@@H](O)C1O` (stereo partly shown) [compound 16], the EC50 (hA3 AR [1]) is reported as 725 ± 110 nM, the Ki (hA3 AR [2]) is reported as 58 ± 24 nM and the Ki (hA1 AR) is reported as 984 ± 223 nM. For the same compound, the EC50 (hA2A AR [3]) was 51 ± 8 nM and the Ki (hA2A AR [4]) was 110 ± 15 nM.
Work on `NCCNC(=O)Cc1ccc(NC(=O)Cc2ccc(Nc3ncnc4c3ncn4[C@@H]3O[C@H](CO)[C@@H](O)[C@H]3O)cc2)cc1` [compound 101, N^6-[4-[[[4-[[[(2-Aminoethyl)amino]carbonyl]methyl]-anilino]carbonyl]methyl]phenyl]adenosine, reference compound] yielded an EC50 (A1AR [5]) of 120 ± 13 nM, a Ki (A2AAR) of 370 ± 100 nM and a Ki (A1AR [6]) of 10.4 ± 3.8 nM.
`CCNC(=O)[C@H]1OC(n2cnc3c(N)nc(NCCc4ccc(CCC(=O)NCCNC(=S)Nc5ccc(N=C=S)cc5)cc4)nc32)[C@@H](O)C1O` (stereo partly shown) [compound 6] gave an inhibition at 10 µM (hA2A AR [4]; read-out: inhibition of binding at the hA2A AR) of 58%.
In the case of `CCNC(=O)[C@H]1O[C@@H](n2cnc3c(N)nc(NCCc4ccc(CCC(=O)NCCN)cc4)nc32)[C@H](O)[C@@H]1O` [compound 5, 2-[4-(2-aminoethylaminocarbonylethyl)phenylethylamino]-5′-N-ethylcarboxamidoadenosine], the “hA2A, EC50 (class symbol)” value (hA2A AR [7]) is reported as “FA (Full agonist at 10 μM with >90% of effect of NECA)”.
`NCCNCCNC(=O)Cc1ccc(NC(=O)Cc2ccc(Nc3ncnc4c3ncn4[C@@H]3O[C@H](CO)[C@@H](O)[C@H]3O)cc2)cc1` [compound 107, N-(2-Aminoethyl)-ADAC] gave an EC50 (A1AR [5]) of 50 nM, a Ki (A2AAR) of 300 ± 20 nM and a Ki (A3 adenosine receptor [8]) of 10 ± 2 nM. It also gave a Ki (A1AR [6]) of 43 nM, a Ki (A1 adenosine receptor) of 72 nM and a Ki (A3 adenosine receptor [9]) of 61 nM.
For `O=C(O)CCc1ccc(NC(=S)NCCNC(=O)Cc2ccc(NC(=O)Cc3ccc(Nc4ncnc5c4ncn5[C@@H]4O[C@H](CO)[C@@H](O)[C@H]4O)cc3)cc2)cc1` [compound 104], the EC50 (A1AR [5]) was 3000 ± 1300 nM, the Ki (A2AAR) was 800 ± 360 nM and the Ki (A1AR [6]) was 30 nM.
`CCNC(=O)[C@H]1OC(n2cnc3c(N)nc(NCCc4ccc(CCC(=O)NCCNC(=S)Nc5ccc(NC(=S)NCCNC(C)=O)cc5)cc4)nc32)[C@@H](O)C1O` (stereo partly shown) [compound 7] gave an EC50 (hA3 AR [1]) of 375 ± 40 nM, a Ki (hA1 AR) of 840 ± 100 nM and a Ki (hA2A AR [4]) of 70 nM.
